# Reference: US7122662B2, “Tricyclic compound having spiro union” (Mochida Pharmaceutical Co., Ltd., priority 1999, dated 2006)
# Biological target: T1, human FXa (Homo sapiens, UniProt P00742)
# T1 construct: purchased Enzyme Research Laboratories, Inc
# Test: Measurement of human FXa inhibitory action
# Assay type: biochemical
# Conditions: bioassay procedure of Experimental Example 1, a); reference compounds
# Protocol: In vitro FXa inhibitory activity is measured in accordance with the method of Kettner et al. (Journal of Biological Chemistry, vol. 265, pages 18289 to 18297, 1990). To be more specific, human FXa (product of Enzyme Research Laboratories, Inc., 0.019 U/ml) is mixed with a test compound diluted with dimethylsulfoxide (DMSO) at various concentrations and a synthetic substrate S-2222 (Chromogenix AB, 0.4 mM). The mixtures are incubated at 37° C. in Tris-hydrochloric acid buffer (pH 7.5) while the absorbance at 405 nm is measured continuously. To calculate the FXa inhibitory activity of the test compound, the initial reaction velocity is compared with the value for a control containing no test compound. It should be noted that the FXa inhibitory activity of the test compound is generally indicated as IC50.
# T1 sequence (P00742 235-488 limits assumed): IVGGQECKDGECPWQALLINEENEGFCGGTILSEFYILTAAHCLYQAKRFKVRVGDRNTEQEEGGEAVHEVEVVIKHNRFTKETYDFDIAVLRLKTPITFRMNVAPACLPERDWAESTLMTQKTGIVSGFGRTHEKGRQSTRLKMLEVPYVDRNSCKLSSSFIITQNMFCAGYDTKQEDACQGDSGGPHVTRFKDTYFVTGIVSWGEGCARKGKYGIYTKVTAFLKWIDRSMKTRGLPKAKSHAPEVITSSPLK
# T1 sequence (P00742 41-179 partner limits assumed): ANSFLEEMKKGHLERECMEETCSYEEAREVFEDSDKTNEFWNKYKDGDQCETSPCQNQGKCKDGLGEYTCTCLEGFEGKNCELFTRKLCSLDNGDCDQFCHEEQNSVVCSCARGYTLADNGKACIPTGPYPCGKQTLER
row,Compound,IC50
1,"CCOC(=O)[C@H]1CN(S(=O)(=O)c2ccc3cc(Cl)ccc3c2)CC(=O)N1CC1CCN(c2ccncc2)CC1 [Compound C, (R)-4-(6-chloronaphthalen-2-ylsulfonyl)-6-ethoxycarbonyl-l-[1-(4-pyridyl)piperidin-4-ylmethyl]piperazin-2-one]",28 µM
2,"O=C(C(CNS(=O)(=O)c1ccc2cc(Cl)ccc2c1)NCC1CCN(c2ccncc2)CC1)N1CCS(=O)(=O)CC1 (stereo not drawn) [Compound B, 4-[3-(6-chloronaphthalen-2-ylsulfoneamide)-2-[l-(4-pyridyl)piperidin-4-ylmethyl]aminopropionyl]-1,1-dioxothiomorpholine]",31 µM

# Tested on: human plasma
# Test: Measurement of intrinsic coagulation time (APTT) in vitro
# Assay type: biochemical
# Conditions: not given
# Protocol: Activated partial thromboplastin time (APTT) is measured in the presence of the test compounds diluted at various concentrations. A test compound diluted with DMSO at various concentrations is mixed with human plasma and APTT reagent. The mixture is incubated at 37° C. for 2 minutes; calcium chloride (25 mM) is added to the mixture; and the coagulation time is thereafter measured. It should be noted that the anticoagulant activity of the test compound is described in terms of the concentration required to double the coagulation time for the case where no test compound is added.
row,Compound,Concentration required to double coagulation time
1,"CC(C)OC(=O)C12CN(S(=O)(=O)c3ccc4cc(Cl)ccc4c3)CC(=O)N1CC1(CCN(c3ccncc3)CC1)O2 (stereo not drawn) [Example 29, 1,4-diaza-4-(6-chloronaphthalen-2-ylsulfonyl)-6-(isopropoxycarbonyl)-7-oxa-1′-(4-pyridyl)spiro[bicyclo[4.3.0]nonane-8,4′-piperidin]-2-one]",0.90 µM
2,"O=C(O)COCC12CN(S(=O)(=O)c3ccc4cc(Cl)ccc4c3)CC(=O)N1CC1(CCN(c3ccncc3)CC1)O2 (stereo not drawn) [Example 5, 1,4-diaza-4-(6-chloronaphthalen-2-ylsulfonyl)-6-(carboxymethoxymethyl)-7-oxa-1′-(4-pyridyl)spiro[bicyclo[4.3.0]nonane-8,4′-piperidin]-2-one]",0.43 µM
3,"O=C1CN(S(=O)(=O)c2ccc3cc(Cl)ccc3c2)CC2OC3(CCN(c4ccncc4)CC3)CN12 (stereo not drawn) [Example 9, 1,4-diaza-4-(6-chloronaphthalen-2-ylsulfonyl)-7-oxa-1′-(4-pyridyl)spiro[bicyclo[4.3.0]nonane-8,4′-piperidin]-2-one]",0.29 µM
4,"O=C1CN(S(=O)(=O)C=Cc2ccc(Cl)s2)CC2OC3(CCN(c4ccncc4)CC3)CN12 (stereo not drawn) [Example 600, 1,4-diaza-4-[2-(5-chlorothiophen-2-yl)ethenesulfonyl]-7-oxa-1′-(4-pyridyl)spiro[bicyclo[4.3.0]nonane-8,4′-piperidin]-2-one]",0.22 µM
5,"COCC12CN(S(=O)(=O)c3cc4ccc(Cl)cc4s3)CC(=O)N1CC1(CCN(c3ccncc3)CC1)N2 (stereo not drawn) [Example 461, 1,4,7-triaza-4-(6-chlorobenzo[b]thiophen-2-ylsulfonyl)-6-(methoxymethyl)-1′-(4-pyridyl)spiro[bicyclo[4.3.0]nonane-8,4′-piperidin]-2-one]",0.16 µM
6,"COCC12CN(S(=O)(=O)c3ccc4ccccc4c3)CC(=O)N1CC1(CCN(c3ccncc3)CC1)O2 (stereo not drawn) [Example 6, 1,4-diaza-6-(methoxymethyl)-4-(2-naphthalenesulfonyl)-7-oxa-1′-(4-pyridyl)spiro[bicyclo[4.3.0]nonane-8,4′-piperidin]-2-one]",0.99 µM
7,"COCC12CN(S(=O)(=O)c3cc4cc(Cl)ccc4o3)CC(=O)N1CC1(CCN(c3ccncc3)CC1)N2C (stereo not drawn) [Example 533, 1,4,7-triaza-4-(5-chlorobenzo[b]furan-2-ylsulfonyl)-6-(methoxymethyl)-7-methyl-1′-(4-pyridyl)spiro[bicyclo[4.3.0]nonane-8,4′-piperidin]-2-one]",0.35 µM
8,"COCC12CN(S(=O)(=O)c3cc4cc(Cl)ccc4o3)CC(=O)N1CC1(CCN(c3ccncc3)CC1)N2 (stereo not drawn) [Example 471, 1,4,7-triaza-4-(5-chlorobenzo[b]furan-2-ylsulfonyl)-6-(methoxymethyl)-1′-(4-pyridyl)spiro[bicyclo[4.3.0]nonane-8,4′-piperidin]-2-one]",0.27 µM
9,"O=C1CN(S(=O)(=O)c2cc3ccc(Cl)cc3s2)CC2NC3(CCN(c4ccncc4)CC3)CN12 (stereo not drawn) [Example 275, 1,4,7-triaza-4-(6-chlorobenzo[b]thiophen-2-ylsulfonyl)-1′-(4-pyridyl)spiro[bicyclo[4.3.0]nonane-8,4′-piperidin]-2-one]",0.17 µM
10,"CC12CN(S(=O)(=O)c3ccc4cc(Cl)ccc4c3)CC(=O)N1CC1(CCN(c3ccncc3)CC1)O2 (stereo not drawn) [Example 69, 1,4-diaza-4-(6-chloronaphthalen-2-ylsulfonyl)-6-methyl-7-oxa-1′-(4-pyridyl)spiro[bicyclo[4.3.0]nonane-8,4′-piperidin]-2-one]",0.36 µM
11,"COCCOC(=O)C12CN(S(=O)(=O)c3ccc4cc(Cl)ccc4c3)CC(=O)N1CC1(CCN(c3ccncc3)CC1)O2 (single isomer, unassigned; (-)) [Example 42, (−)-1,4-diaza-4-(6-chloronaphthalen-2-ylsulfonyl)-6-(2-methoxyethoxycarbonyl)-7-oxa-1′-(4-pyridyl)spiro[bicyclo[4.3.0]nonane-8,4′-piperidin]-2-one]",0.20 µM
12,"COCC12CN(S(=O)(=O)C3=Cc4ccc(Cl)cc4OC3)CC(=O)N1CC1(CCN(c3ccncc3)CC1)O2 (stereo not drawn) [Example 388, 1,4-diaza-4-(7-chloro-2H-benzopyran-3-sulfonyl)-6-(methoxymethyl)-7-oxa-1′-(4-pyridyl)spiro[bicyclo[4.3.0]nonane-8,4′-piperidin]-2-one]",0.22 µM
13,"COCC12CN(S(=O)(=O)c3ccc4cc(Cl)ccc4c3)CC(=O)N1CC1(CCN(c3cc[n+](C)cc3)CC1)O2.Cc1ccc(S(=O)(=O)[O-])cc1 (stereo not drawn) [Example 23, 4-[1,4-diaza-4-(6-chloronaphthalen-2-ylsulfonyl)-6-(methoxymethyl)-7-oxa-2-oxospiro[bicyclo[4.3.0]nonane-8,4′-piperidin-1′-yl]]-1-methylpyridinium p-toluenesulfonate]",0.62 µM
14,"COCC12CN(S(=O)(=O)c3cc4ccc(Cl)cc4s3)CC(=O)N1CC1(CCN(c3ccncc3)CC1)O2 (stereo not drawn) [Example 399, 1,4-diaza-4-(6-chlorobenzo[b]thiophen-2-ylsulfonyl)-6-(methoxymethyl)-7-oxa-1′-(4-pyridyl)spiro[bicyclo[4.3.0]nonane-8,4′-piperidin]-2-one]",0.18 µM
15,"COCC12CN(S(=O)(=O)C=Cc3ccc(Cl)s3)CC(=O)N1CC1(CCN(c3ccncc3)CC1)N2C (stereo not drawn) [Example 740, 1,4,7-triaza-4-[2-(5-chlorothiophen-2-yl)ethenesulfonyl]-6-(methoxymethyl)-7-methyl-1′-(4-pyridyl)spiro[bicyclo[4.3.0]nonane-8,4′-piperidin]-2-one]",0.18 µM
16,"NCC12CN(S(=O)(=O)c3ccc4cc(Cl)ccc4c3)CC(=O)N1CC1(CCN(c3ccncc3)CC1)O2 (stereo not drawn) [Example 58, 6-(aminomethyl)-1,4-diaza-4-(6-chloronaphthalen-2-ylsulfonyl)-7-oxa-1′-(4-pyridyl)spiro[bicyclo[4.3.0]nonane-8,4′-piperidin]-2-one]",0.18 µM
